Columns and labels:
[1] = test system: lymphocytes from MLN of Mtb-infected mice; experiment: Recall response to Mtb lipids in Mtb-infected hCD1Tg mice (IFN-γ ELISPOT); type: cell-based
[2] = test system: DN1 T cells; type: cell-based, mouse; details: screen of 6 common adjuvants, CD69 on DN1 T cells
Description: 24 h later, the percentage of DN1 T cells expressing CD69 was determined by FACS. Data are representative of two experiments.

Substance | T cell responses to Mtb lipid [1] | enhancement of a suboptimal dose of MA-MC [2]
Glucose monomycolate [GMM] | readily detected | –
Sulfoglycolipid [SGL] | readily detected | –
cyclic-di-GMP | – | top three candidates
monophosphoryl lipid A [MPLA] | – | top three candidates
